Measurements: patent US8889671B2, “Compounds and methods for treating bacterial infections” (AstraZeneca AB, priority 2013, dated 2014)
Converted amounts (≈) assume the structure as drawn. Where two headings read alike, the source gives them in different places.

What was measured:
Haemophilus influenzae = assay: Susceptibility testing (MIC) Assay 2, broth microdilution; format: cell-based; conditions: ATCC51907, Haemophilus influenzae, ATCC 51907, in vivo strain, read-out: Hin MIC
Escherichia coli = assay: as above; format: cell-based; conditions: K12, read-out: Eco MIC
Pseudomonas aeruginosa = assay: as above; format: cell-based; conditions: PAO1, read-out: Pae MIC
Klebsiella pneumoniae = assay: as above; format: cell-based; conditions: clinical isolate, mucoid, read-out: Kpn MIC
Streptococcus pyogenes = assay: Susceptibility testing (MIC) Assay 1, broth microdilution; format: cell-based; conditions: Streptococcus pyogenes, Streptococcus pyrgenes, in vivo strain; read-out: Spy MIC
Staphylococcus aureus = assay: as above; format: cell-based; conditions: Staphylococcus aureus
Streptococcus pneumoniae = assay: as above; format: cell-based
[1] = molecular target: Escherichia coli DNA gyrase A/B tetramer (Escherichia coli (strain K12), UniProt P0AES4+P0AES6); assay: DNA gyrase supercoiling activity fluorescence polarisation assay; format: biochemical; conditions: Eco Gyr FP Mean IC50, E. coli DNA gyrase supercoiling, 0.3 mM ATP
In short: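 Relaxed triplex-forming plasmid (130 micrograms/mL) supercoiled by 5 nM gyrase A/B tetramer in Tris-HCl pH 7.5 buffer with 4 mM MgCl2 and 0.3 mM ATP, ~30 min, ambient temperature. Quenched with 5′-BODIPY-FL triplex probe at pH 3.5; fluorescence anisotropy read after 60 min. IC50 by nonlinear regression against two control reactions.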

[2] = Staphylococcus aureus in vivo strain, MSQS, read-out: Sau(d) MIC
[3] = in vivo strain, MRQR, read-out: Sau(e) MIC
[4] = in vivo strain (footnote b), read-out: Spn(b) MIC
[5] = in vivo strain (footnote c), read-out: Spn(c) MIC

Row | SMILES | MIC (Haemophilus influenzae) [µM] | MIC (Escherichia coli) [µM] | MIC (Pseudomonas aeruginosa) [µM] | MIC (Klebsiella pneumoniae) [µM] | MIC (Streptococcus pyogenes) [µM] | MIC (Staphylococcus aureus; [2]) [µM] | MIC (Staphylococcus aureus; [3]) [µM] | MIC (Staphylococcus aureus; serum, read-out: Sau(f) MIC) [µM] | MIC (Streptococcus pneumoniae; [4]) [µM] | MIC (Streptococcus pneumoniae; [5]) [µM] | IC50 [1] [nM]
1 | C[C@@H]1CN2c3c(cc4c(N5C(=O)OC[C@H]5c5cnccn5)noc4c3F)CC3(C(=O)NC(=O)NC3=O)[C@H]2[C@H](C)O1 [Example 61, (2R,4S,4aS)-11-Fluoro-2,4-dimethyl-8-((R)-2-oxo-4-(pyrazin-2-yl)oxazolidin-3-yl)-2,4,4a,6-tetrahydro-1H,1′H-spiro[isoxazolo[4,5-g][1,4]oxazino[4,3-a]quinoline-5,5′-pyrimidine]-2′,4′,6′(3′H)-trione] | < 0.2 | 100 (≈ 55.1 µg/mL) | > 200 | > 200 | 0.78 (≈ 0.43 µg/mL) | 0.78 (≈ 0.43 µg/mL) | 3.1 (≈ 1.71 µg/mL) | 1.6 (≈ 0.882 µg/mL) | 0.78 (≈ 0.43 µg/mL) | 0.78 (≈ 0.43 µg/mL) | 340
2 | C[C@@H]1CN2c3c(cc4c(N5C[C@@H](C#N)OC5=O)noc4c3F)CC3(C(=O)NC(=O)NC3=O)[C@H]2[C@H](C)O1 [Example 76, (5S)-3-[(2R,4S,4aS)-11-fluoro-2,4-dimethyl-2′,4′,6′-trioxo-1,1′,2,3′,4,4′,4a,6′-octahydro-2′H,6H-spiro[1,4-oxazino[4,3-a][1,2]oxazolo[4,5-g]quinoline-5,5′-pyrimidin]-8-yl]-2-oxo-1,3-oxazolidine-5-carbonitrile] | 0.78 (≈ 0.389 µg/mL) | 50 (≈ 24.9 µg/mL) | > 200 | > 200 | 0.39 (≈ 0.194 µg/mL) | 0.39 (≈ 0.194 µg/mL) | 1.6 (≈ 0.797 µg/mL) | 0.78 (≈ 0.389 µg/mL) | 0.39 (≈ 0.194 µg/mL) | 0.78 (≈ 0.389 µg/mL) | 550
3 | CC[C@H]1CN(c2noc3c(F)c4c(cc23)CC2(C(=O)NC(=O)NC2=O)[C@H]2[C@H](C)O[C@H](C)CN42)C(=O)O1 [Example 13, (2R,4S,4aS)-8-[(5S)-5-Ethyl-2-oxo-1,3-oxazolidin-3-yl]-11-fluoro-2,4-dimethyl-1,2,4,4a-tetrahydro-2′H,6H-spiro[1,4-oxazino[4,3-a][1,2]oxazolo[4,5-g]quinoline-5,5′-pyrimidine]-2′,4′,6′(1′H,3′H)-trione] | 0.78 (≈ 0.391 µg/mL) | 12 (≈ 6.02 µg/mL) | > 200 | 200 (≈ 100 µg/mL) | 0.39 (≈ 0.196 µg/mL) | 0.39 (≈ 0.196 µg/mL) | 0.78 (≈ 0.391 µg/mL) | 0.78 (≈ 0.391 µg/mL) | 0.78 (≈ 0.391 µg/mL) | 0.78 (≈ 0.391 µg/mL) | 510
4 | C[C@@H]1CN2c3c(cc4c(N5C(=O)OC[C@@H]5CCCO)noc4c3F)CC3(C(=O)NC(=O)NC3=O)[C@H]2[C@H](C)O1 [Example 29, (2R,4S,4aS)-11-Fluoro-8-((S)-4-(3-hydroxypropyl)-2-oxooxazolidin-3-yl)-2,4-dimethyl-2,4,4a,6-tetrahydro-1H,1′H-spiro[isoxazolo[4,5-g][1,4]oxazino[4,3-a]quinoline-5,5′-pyrimidine]-2′,4′,6′(3′H)-trione] | 0.78 (≈ 0.415 µg/mL) | 100 (≈ 53.1 µg/mL) | > 200 | > 200 | 0.39 (≈ 0.207 µg/mL) | 3.1 (≈ 1.65 µg/mL) | 12 (≈ 6.38 µg/mL) | 3.1 (≈ 1.65 µg/mL) | 0.39 (≈ 0.207 µg/mL) | 0.78 (≈ 0.415 µg/mL) | 270
5 | C[C@@H]1CN2c3c(cc4c(N5C(=O)OC[C@@H]5c5ccccc5)noc4c3F)CC3(C(=O)NC(=O)NC3=O)[C@H]2[C@H](C)O1 [Example 9, (2R,4S,4aS)-11-Fluoro-2,4-dimethyl-8-[(4S)-2-oxo-4-phenyl-1,3-oxazolidin-3-yl]-1,2,4,4a-tetrahydro-2′H,6H-spiro[1,4-oxazino[4,3-a][1,2]oxazolo[4,5-g]quinoline-5,5′-pyrimidine]-2′,4′,6′(1′H,3′H)-trione] | 0.39 (≈ 0.214 µg/mL) | 50 (≈ 27.5 µg/mL) | > 200 | > 200 | 0.78 (≈ 0.429 µg/mL) | 0.78 (≈ 0.429 µg/mL) | 0.78 (≈ 0.429 µg/mL) | 12 (≈ 6.59 µg/mL) | 1.6 (≈ 0.879 µg/mL) | 1.6 (≈ 0.879 µg/mL) | 710
6 | C[C@@H]1CN2c3c(cc4c(N5C(=O)OC[C@@H]5c5cnccn5)noc4c3F)CC3(C(=O)NC(=O)NC3=O)[C@H]2[C@H](C)O1 [Example 62, (2R,4S,4aS)-11-fluoro-2,4-dimethyl-8-((S)-2-oxo-4-(pyrazin-2-yl)oxazolidin-3-yl)-2,4,4a,6-tetrahydro-1H,1′H-spiro[isoxazolo[4,5-g][1,4]oxazino[4,3-a]quinoline-5,5′-pyrimidine]-2′,4′,6′(3′H)-trione] | 3.1 (≈ 1.71 µg/mL) | > 200 | > 200 | > 200 | 3.1 (≈ 1.71 µg/mL) | 3.1 (≈ 1.71 µg/mL) | 6.2 (≈ 3.42 µg/mL) | 6.2 (≈ 3.42 µg/mL) | 6.2 (≈ 3.42 µg/mL) | 3.1 (≈ 1.71 µg/mL) | 1400
7 | C[C@@H]1CN2c3c(cc4c(N5C[C@@H](c6ccccn6)OC5=O)noc4c3F)CC3(C(=O)NC(=O)NC3=O)[C@H]2[C@H](C)O1 [Example 54, (2R,4S,4aS)-11-fluoro-2,4-dimethyl-8-((S)-2-oxo-5-(pyridin-2-yl)oxazolidin-3-yl)-2,4,4a,6-tetrahydro-1H,1′H-spiro[isoxazolo[4,5-g][1,4]oxazino[4,3-a]quinoline-5,5′-pyrimidine]-2′,4′,6′(3′H)-trione] | 3.1 (≈ 1.71 µg/mL) | 100 (≈ 55.1 µg/mL) | > 200 | > 200 | 0.78 (≈ 0.429 µg/mL) | 0.39 (≈ 0.215 µg/mL) | 0.78 (≈ 0.429 µg/mL) | 1.6 (≈ 0.881 µg/mL) | 0.78 (≈ 0.429 µg/mL) | 0.78 (≈ 0.429 µg/mL) | 940
8 | C[C@@H]1CN2c3c(cc4c(N5C[C@H](CN=[N+]=[N-])OC5=O)noc4c3F)CC3(C(=O)NC(=O)NC3=O)[C@H]2[C@H](C)O1 [Example 44, (2R,4S,4aS)-8-[(5R)-5-(Azidomethyl)-2-oxo-1,3-oxazolidin-3-yl]-11-fluoro-2,4-dimethyl-1,2,4,4a-tetrahydro-2′H,6H-spiro[1,4-oxazino[4,3-a][1,2]oxazolo[4,5-g]quinoline-5,5′-pyrimidine]-2′,4′,6′(1′H,3′H)-trione] | 0.78 (≈ 0.412 µg/mL) | 50 (≈ 26.4 µg/mL) | > 200 | > 200 | 0.78 (≈ 0.412 µg/mL) | 0.78 (≈ 0.412 µg/mL) | 3.1 (≈ 1.64 µg/mL) | 3.1 (≈ 1.64 µg/mL) | 0.78 (≈ 0.412 µg/mL) | 1.6 (≈ 0.846 µg/mL) | 530
9 | COC[C@@H]1COC(=O)N1c1noc2c(F)c3c(cc12)CC1(C(=O)NC(=O)NC1=O)[C@H]1[C@H](C)O[C@H](C)CN31 [Example 18, (2R,4S,4aS)-11-fluoro-8-[(4R)-4-(methoxymethyl)-2-oxo-1,3-oxazolidin-3-yl]-2,4-dimethyl-1,2,4,4a-tetrahydro-2′H,6H-spiro[1,4-oxazino[4,3-a][1,2]oxazolo[4,5-g]quinoline-5,5′-pyrimidine]-2′,4′,6′(1′H,3′H)-trione] | 3.1 (≈ 1.6 µg/mL) | > 200 | > 200 | > 200 | 12 (≈ 6.21 µg/mL) | 3.1 (≈ 1.6 µg/mL) | 6.2 (≈ 3.21 µg/mL) | 12 (≈ 6.21 µg/mL) | 3.1 (≈ 1.6 µg/mL) | 6.2 (≈ 3.21 µg/mL) | 810
10 | C[C@@H]1CN2c3c(cc4c(N5C[C@H](c6ccccn6)OC5=O)noc4c3F)CC3(C(=O)NC(=O)NC3=O)[C@H]2[C@H](C)O1 [Example 53, (2R,4S,4aS)-11-Fluoro-2,4-dimethyl-8-((R)-2-oxo-5-(pyridin-2-yl)oxazolidin-3-yl)-2,4,4a,6-tetrahydro-1H,1′H-spiro[isoxazolo[4,5-g][1,4]oxazino[4,3-a]quinoline-5,5′-pyrimidine]-2′,4′,6′(3′H)-trione] | 1.1 (≈ 0.606 µg/mL) | 35 (≈ 19.3 µg/mL) | > 200 | > 200 | 0.464 (≈ 0.255 µg/mL) | 0.098 (≈ 0.0539 µg/mL) | 0.39 (≈ 0.215 µg/mL) | 0.55 (≈ 0.303 µg/mL) | 0.39 (≈ 0.215 µg/mL) | 0.55 (≈ 0.303 µg/mL) | 380
